Consider one molecule from paper PMC11284787, “Ligand-Directed Labeling of the Adenosine A1 Receptor in Living Cells” (Journal of Medicinal Chemistry, 2024).

One assay concerns the target T1, NL-hA2AAR (Homo sapiens, UniProt P29274).
T1 construct: expressed in transfected cells; host or cells: HEK293T, transient transfection (FuGENE)
Description: NanoBRET saturation ligand-binding assay, NL-hA2AAR. Conditions: HEK293T cells transiently expressing NL-hA2AAR, mean ± SEM; read-out: affinity values pKD, NL-hA2AAR (converted). How it is done:
Probes 11 and 12 were further evaluated for their ability to bind the other three adenosine receptor subtypes (NL-A2AAR, NL-A2BAR, and NL-A3AR), and their ligand-binding properties were quantified in the NanoBRET saturation and inhibition binding assays, respectively (Table 1 and Figure 4). […]
plates (Nunc Lab-Tek, Thermo Fischer Scientific), pre-coated with Poly-D-Lysine, at 20,000 cells per well in DMEM/10% FCS. 24 h post seeding, cells were transiently transfected with human SNAP-A1. Transient transfections were carried out following manufacturer’s protocol: used FuGENE (Promega) HD at 3:1 ratio of reagent to cDNA with a total of 300 ng cDNA per well. Transfection solutions were made up in Gibco Opti-MEM (Thermo Fischer Scientific), incubated at RT for 5 min and added as 11 µL per well. Cells were incubated for additional 24 h at 37 OC, 5% CO2. Transient Transfection of NanoLuc-tagged human A 2AAR in HEK293T cell line was carried out as follows: 72 h prior to the experiment cells were removed from a confluent T75 flask and centrifuged. The pellet of cells was resuspended in 10 mL of fresh complete DMEM. […]
(§1) 37 °C for kinetic binding experiments. Emissions were read at 420 nm (80 nm bandpass; […]
For orientation: BRET reads energy transfer from a luciferase to a nearby fluorophore.

The next assay concerns T2, rat NL-A1AR.
T2 construct: expressed in transfected cells
As to the kind of experiment: NanoBRET dissociation kinetics, rat NL-A1AR HEK293 cells. The class given is binding. Conditions: rat NL-A1AR HEK293 cells prelabeled with 250 nM, 10 μM DPCPX. On the procedure:
Figure 3 Molecular pharmacology and biochemical characterization of 11 and 12. NanoBRET ligand-binding data were measured in HEK293 cells stably expressing the human NL-A1AR (A–C) or rat NL-A1AR (D–F). […] Data were normalized to maximal BRET signals in the absence of unlabeled competing ligands (total binding, TB). (C, F) NanoBRET dissociation kinetics experiments with 11 (SulfoCy5) performed in human and rat NL-A1AR HEK293T cells, respectively. Cells were treated with 250 nM 11 (SulfoCy5, lilac open circles) for 5 h and CA200645 (black open triangles) for 2 h. […] Each data point represents the combined mean ± SEM from n = 5 (A, C), n = 4 (B, D), and n = 3 (E, F) experiments, each one performed in triplicate. (G) HEK293G cells stably expressing TS-SNAP-A1AR were treated with 300 nM 11 or 130 nM 12 in serum-free media for 2 h at 37 °C and 5% CO2. For samples treated with compound 12, the labeling solution was removed and immediately replaced with 10 mL of serum-free media containing 1 μM Met-Tet-Cy5 and incubated at 37 °C and 5% CO2 for a further 15 min. Untreated cells were used as a control. TS-SNAP-A1AR was purified and separated on an SDS-PAGEgel gel, and direct Cy5 fluorescence was visualized using in-gel fluorescence. The gel shown is representative of three independent experiments. […]
as §1

T1 sequence (P29274 whole entry): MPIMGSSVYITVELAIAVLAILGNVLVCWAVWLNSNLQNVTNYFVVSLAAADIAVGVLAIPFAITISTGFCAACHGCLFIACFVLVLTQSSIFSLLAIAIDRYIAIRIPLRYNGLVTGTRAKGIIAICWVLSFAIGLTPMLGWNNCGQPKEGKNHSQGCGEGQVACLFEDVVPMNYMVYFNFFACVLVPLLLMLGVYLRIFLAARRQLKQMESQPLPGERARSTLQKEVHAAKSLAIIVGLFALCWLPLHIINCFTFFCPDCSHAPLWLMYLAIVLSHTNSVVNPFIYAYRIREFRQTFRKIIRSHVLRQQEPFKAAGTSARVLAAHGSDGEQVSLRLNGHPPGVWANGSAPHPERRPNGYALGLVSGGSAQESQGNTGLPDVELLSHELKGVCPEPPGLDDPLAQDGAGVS

In the case of `CCCCn1c(=O)c2[nH]c(C34CCC(C(=O)NCCNC(=O)CCNC(=O)c5ccc(OC(=O)CCCCC[N+]6=C(/C=C/C=C/C=C7/N(C)c8ccc(S(=O)(=O)O)cc8C7(C)C)C(C)(C)c7cc(S(=O)(=O)[O-])ccc76)c(F)c5)(CC3)CC4)nc2n(CCCC)c1=O` [Compound 11, 1-(6-(4-((3-((2-(4-(1,3-Dibutyl-2,6-dioxo-2,3,6,7-tetrahydro-1H-purin-8-yl)bicyclo[2.2.2]octane-1-carboxamido)ethyl)amino)-3-oxopropyl)carbamoyl)-2-fluorophenoxy)-6-oxohexyl)-3,3-dimethyl-2-((1E,3E)-5-((E)-1,3,3-trimethyl-5-sulfoindolin-2-ylidene)penta-1,3-dien-1-yl)-3H-indol-1-ium-5-sulfonate], on NL-hA2AAR, the Kd is 245 nM. Further, the “ability to covalently transfer the fluorophore to the A1AR (dissociation experiment)” value with rat NL-A1AR is reported as “could be retained across species”.
